In patent US20020072601A1, “Method for forming amino acid derivatives from tricyclic diketopiperazines” (University of Southern Mississippi, priority 2000, published 2002):

Experiment: Gelation studies: minimum concentration needed for solvent gelation
Type: physicochemical
Details: cooled to room temperature
Procedure: The ring-opening reaction of PyDKP with certain nucleophiles (Reaction 3) forms a class of pyroglutamate derivatives that gel organic solvents. In these experiments, the solubility and minimum concentration needed for solvent gelation were determined. Tetradecyl pyroglutamide was placed in various solvents which were then heated to their boiling point, except silicone and soybean oil, which were heated to 150° C. to prevent decomposition of the gelator. In most cases, regardless of partial insolubility in some instances, the various solvents formed immobile gels upon cooling to room temperature. All of the gels were thermoreversible, meaning the gel would revert back to liquid with the application of heat and then reform with cooling.

Compound: CCCCCCCCCCCCCCNC(=O)[C@@H]1CCC(=O)N1 [N-tetradecyl pyroglutamide, N-Pyroglutamyl tetradecylamine]
- gel Concentration (1-Propanol): 50 g/L
- gel Concentration (Acetonitrile): 15 g/L
- gel Concentration (Benzene): 100 g/L
- gel Concentration (Butanol): 100 g/L
- gel Concentration (Chloroform): 160 g/L
- gel Concentration (Dichioromethane): 50 g/L
- gel Concentration (Ethanol): 30 g/L
- gel Concentration (Methanol): 30 g/L
- gel Concentration (Silicone Oil): 11 g/L
- gel Concentration (Soybean Oil): 11 g/L
